Assay results reported in patent US20140057895A1, “INDAZOLE- AND PYRROLOPYRIDINE-DERIVATIVE AND PHARMACEUTICAL USE THEREOF” (priority 2011, published 2014).

Assays:
[1] = target: T1, human 5-HT4b receptor (Homo sapiens, UniProt Q13639); assay: Test Example 4: Serotonin 4 (5-HT4) receptor agonist activity assay, cAMP HTRF in CHO cells (Table 100); type: cell-based; details: mean value; for Emax: CHO, 0.25 h, intrinsic activity, maximal activity of 5-HT defined as 100%, read-out: IA (%); for EC50: concentration showing 50% of IA
T1 construct: expressed in transfected cells; host or cells: CHO cells (G418 selection)
Summary of the method: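 Read-out is HTRF cAMP (time-resolved fluorescence 620/665 nm after 1 h RT with cAMP-cryptate and cAMP-d2), from recombinant CHO cells bearing human 5-HT4b treated with compound 15 min at 31° C. in Hanks/HEPES buffer pH 7.4. IA (%) scaled to peak 5-HT effect over 10^−11–10^−7 M; EC50 is concentration giving half that IA.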

[2] = target: T2, Human 5-HT4 receptor (5-HT4b) (Homo sapiens, UniProt Q13639); assay: Test Example 3: Human 5-HT4 receptor binding assay, membranes of CHO-K1 cells stably expressing 5-HT4b receptors (Table 99); details: mean value of each group
T2 construct: expressed in transfected cells; membrane preparation
Summary of the method: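 Radioligand displacement: [3H]-GR113808 (0.1 nM) bound to CHO-K1 5-HT4b membranes for 30 min at 37 °C in Hepes buffer (50 mM, pH 7.4). Specific binding is total minus that with 30 μM serotonin; filter-bound radioactivity counted, IC50 derived from percent inhibition.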

T1 sequence (Q13639 whole entry): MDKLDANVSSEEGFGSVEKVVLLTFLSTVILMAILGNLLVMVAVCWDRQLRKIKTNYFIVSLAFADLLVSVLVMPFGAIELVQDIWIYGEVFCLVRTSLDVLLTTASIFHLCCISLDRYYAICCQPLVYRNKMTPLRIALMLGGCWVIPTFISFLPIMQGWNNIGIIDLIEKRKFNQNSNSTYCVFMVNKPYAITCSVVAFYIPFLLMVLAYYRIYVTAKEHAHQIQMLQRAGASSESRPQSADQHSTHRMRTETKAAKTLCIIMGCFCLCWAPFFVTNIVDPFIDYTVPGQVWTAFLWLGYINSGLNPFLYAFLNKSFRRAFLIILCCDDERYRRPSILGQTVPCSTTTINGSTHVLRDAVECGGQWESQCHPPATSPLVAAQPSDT
T2 sequence (Q13639 whole entry): as above

| Emax [1] | EC50 [1] | IC50 [2] | Structure (SMILES) |
| --- | --- | --- | --- |
| 54% | 3.7 nM | < 20 nM | CC(C)c1nn(-c2noc(C[C@@H]3CCN(C4CCN(S(C)(=O)=O)CC4)C3)n2)c2c(F)cccc12 [Example 508, 7-fluoro-1-[5-({(3S)-1-[1-(methylsulfonyl)piperidin-4-yl]pyrrolidin-3-yl}methyl)-1,2,4-oxadiazol-3-yl]-3-(propan-2-yl)-1H-indazole] |
| 82% | 14.6 nM | 20.5 nM | COCCN(CC1CCCO1)C1CC(c2nc(-n3nc(C(C)C)c4cccc(F)c43)no2)C1 (stereo not drawn) [Example 612, 3-{3-[7-fluoro-3-(propan-2-yl)-1H-indazol-1-yl]-1,2,4-oxadiazol-5-yl}-N-(2-methoxyethyl)-N-(tetrahydrofuran-2-ylmethyl)cyclobutanamine] |
| 104% | 2.5 nM | < 20 nM | CC(C)c1nn(-c2noc(C3CCN(C4(C)CCN(C(=O)N(C)C)CC4)CC3)n2)c2c(F)cccc12 [Example 489, 4-{3-[7-fluoro-3-(propan-2-yl)-1H-indazol-1-yl]-1,2,4-oxadiazol-5-yl}-N,N,4′-trimethyl-1,4′-bipiperidine-1′-carboxamide] |
| 84% | 3.5 nM | < 20 nM | CC(=O)N1CC(CN2CC[C@H](Cc3nc(-n4nc(C(C)C)c5cccc(F)c54)no3)C2)C1 [Example 501, 1-(3-{[(3R)-3-({3-[7-fluoro-3-(propan-2-yl)-1H-indazol-1-yl]-1,2,4-oxadiazol-5-yl}methyl)pyrrolidin-1-yl]methyl}azetidin-1-yl)ethanone] |
| 78% | 2.9 nM | < 20 nM | CCc1nn(-c2noc(C3CCN(C4(C)CCN(S(C)(=O)=O)CC4)CC3)n2)c2c(F)cccc12 [Example 492, 4-[3-(3-ethyl-7-fluoro-1H-indazol-1-yl)-1,2,4-oxadiazol-5-yl]-4′-methyl-1′-(methylsulfonyl)-1,4′-bipiperidine] |
| 75% | 2.6 nM | < 20 nM | CC(C)c1nn(-c2noc(C[C@H]3CCN(C4CCN(C(=O)CO)CC4)C3)n2)c2c(F)cccc12 [Example 539, 1-{4-[(3R)-3-({3-[7-fluoro-3-(propan-2-yl)-1H-indazol-1-yl]-1,2,4-oxadiazol-5-yl}methyl)pyrrolidin-1-yl]piperidin-1-yl}-2-hydroxyethanone] |
| 93% | 6.9 nM | < 20 nM | CC(C)c1nn(-c2noc(C3CC(NC4CCOCC4)C3)n2)c2c(F)cccc12 (stereo not drawn) [Example 595, N-(3-{3-[7-fluoro-3-(propan-2-yl)-1H-indazol-1-yl]-1,2,4-oxadiazol-5-yl}cyclobutyl)tetrahydro-2H-pyran-4-amine] |
| 97% | 2.6 nM | < 20 nM | CC(=O)N1CC[C@H](NC2CC(c3nc(-n4nc(C(C)C)c5cccc(F)c54)no3)C2)C1 (stereo partly drawn) [Example 591, 1-{(3S)-3-[(3-{3-[7-fluoro-3-(propan-2-yl)-1H-indazol-1-yl]-1,2,4-oxadiazol-5-yl}cyclobutyl)amino]pyrrolidin-1-yl}ethanone] |
| 60% | 5.5 nM | < 20 nM | CC(C)c1nn(-c2noc(C[C@@H]3CCN(C4CCN(C(=O)CO)CC4)C3)n2)c2c(F)cccc12 [Example 545, 1-{4-[(3S)-3-({3-[7-fluoro-3-(propan-2-yl)-1H-indazol-1-yl]-1,2,4-oxadiazol-5-yl}methyl)pyrrolidin-1-yl]piperidin-1-yl}-2-hydroxyethanone] |
| 72% | 2.1 nM | < 20 nM | CCc1nn(-c2noc(C3CCN(C4(C)CCN(C(=O)COC)CC4)CC3)n2)c2c(F)cccc12 [Example 494, 1-{4-[3-(3-ethyl-7-fluoro-1H-indazol-1-yl)-1,2,4-oxadiazol-5-yl]-4′-methyl-1,4′-bipiperidin-1′-yl}-2-methoxyethanone] |
| 88% | 5.8 nM | 76.1 nM | CC(=O)N1CCC[C@H]1CN1CC[C@H](Cc2nc(-n3nc(C(C)C)c4cccc(F)c43)no2)C1 [Example 497, 1-[(2S)-2-{[(3R)-3-({3-[7-fluoro-3-(propan-2-yl)-1H-indazol-1-yl]-1,2,4-oxadiazol-5-yl}methyl)pyrrolidin-1-yl]methyl}pyrrolidin-1-yl]ethanone] |
| 24% | 2.9 nM | < 20 nM | O=C(CO)N1CCC(N2CCC(c3nc(-n4nc(C5CC5)c5cccc(F)c54)no3)CC2)CC1 [Example 523, 1-{4-[3-(3-cyclopropyl-7-fluoro-1H-indazol-1-yl)-1,2,4-oxadiazol-5-yl]-1,4′-bipiperidin-1′-yl}-2-hydroxyethanone] |
| 101% | 2.8 nM | 12.6 nM | CC(=O)N1CCC(CN[C@H]2C[C@@H](c3nc(-n4nc(C(C)C)c5cccc(F)c54)no3)C2)CC1 [Example 590, 1-(4-{[(cis-3-{3-[7-fluoro-3-(propan-2-yl)-1H-indazol-1-yl]-1,2,4-oxadiazol-5-yl}cyclobutyl)amino]methyl]piperidin-1-yl)ethanone] |
| 94% | 42.2 nM | 95.9 nM | CC(=O)NCCN(C1CCOCC1)C1CC(c2nc(-n3nc(C(C)C)c4cccc(F)c43)no2)C1 (stereo not drawn) [Example 611, N-{2-[(3-{3-[7-fluoro-3-(propan-2-yl)-1H-indazol-1-yl]-1,2,4-oxadiazol-5-yl}cyclobutyl)(tetrahydro-2H-pyran-4-yl)amino]ethyl}acetamide] |
| 86% | 18.1 nM | < 20 nM | Cc1nn(-c2noc(C3CCN(C4CCN(C(=O)CO)CC4)CC3)n2)c2c(F)cccc12 [Example 525, 1-{4-[3-(7-fluoro-3-methyl-1H-indazol-1-yl)-1,2,4-oxadiazol-5-yl]-1,4′-bipiperidin-1′-yl}-2-hydroxyethanone] |
| 47% | 3.9 nM | < 20 nM | CC(C)c1nn(-c2noc(C[C@H]3CCN(C[C@@H]4CCN(S(C)(=O)=O)C4)C3)n2)c2c(F)cccc12 [Example 504, 7-fluoro-1-(5-{[(3R)-1-{[(3S)-1-(methylsulfonyl)pyrrolidin-3-yl]methyl}pyrrolidin-3-yl]methyl}-1,2,4-oxadiazol-3-yl)-3-(propan-2-yl)-1H-indazole] |
| 76% | 2.4 nM | < 20 nM | CCc1nn(-c2noc(C3CCN(C4(C)CCN(C(=O)CO)CC4)CC3)n2)c2c(F)cccc12 [Example 538, 1-{4-[3-(3-ethyl-7-fluoro-1H-indazol-1-yl)-1,2,4-oxadiazol-5-yl]-4′-methyl-1,4′-bipiperidin-1′-yl}-2-hydroxyethanone] |
| 75% | 7.2 nM | < 20 nM | CC(C)c1nn(-c2noc(C[C@@H]3CCN(C[C@@H]4CCN(S(C)(=O)=O)C4)C3)n2)c2c(F)cccc12 [Example 516, 7-fluoro-1-(5-{[(3S)-1-{[(3S)-1-(methylsulfonyl)pyrrolidin-3-yl]methyl}pyrrolidin-3-yl]methyl}-1,2,4-oxadiazol-3-yl)-3-(propan-2-yl)-1H-indazole] |
| 72% | 6.1 nM | < 20 nM | CC(=O)N1CC[C@H](CN2CC[C@@H](Cc3nc(-n4nc(C(C)C)c5cccc(F)c54)no3)C2)C1 [Example 517, 1-[(3R)-3-{[(3S)-3-({3-[7-fluoro-3-(propan-2-yl)-1H-indazol-1-yl]-1,2,4-oxadiazol-5-yl}methyl)pyrrolidin-1-yl]methyl}pyrrolidin-1-yl]ethanone] |
| 99% | 2.7 nM | < 20 nM | CC(=O)N1CCC(N[C@H]2C[C@@H](c3nc(-n4nc(C(C)C)c5cccc(F)c54)no3)C2)CC1 [Example 593, 1-{4-[(cis-3-{3-[7-fluoro-3-(propan-2-yl)-1H-indazol-1-yl]-1,2,4-oxadiazol-5-yl}cyclobutyl)amino]piperidin-1-yl}ethanone] |
| 109% | 2.4 nM | < 20 nM | CC(C)c1nn(-c2noc(C3CCN(C[C@@H]4CCN(S(C)(=O)=O)C4)CC3)n2)c2c(F)cccc12 [Example 585, 7-fluoro-1-[5-(1-{[(3S)-1-(methylsulfonyl)pyrrolidin-3-yl]methyl}piperidin-4-yl)-1,2,4-oxadiazol-3-yl]-3-(propan-2-yl)-1H-indazole] |
| 106% | 15.3 nM | 78.1 nM | CC(C)c1nn(-c2noc(C[C@H]3CCN(C[C@@H]4CCCN4C(=O)CO)C3)n2)c2c(F)cccc12 [Example 540, 1-[(2S)-2-{[(3R)-3-({3-[7-fluoro-3-(propan-2-yl)-1H-indazol-1-yl]-1,2,4-oxadiazol-5-yl}methyl)pyrrolidin-1-yl]methyl}pyrrolidin-1-yl]-2-hydroxyethanone] |
| 82% | 7.8 nM | 48.6 nM | CC(=O)N1CCC[C@@H]1CN1CC[C@H](Cc2nc(-n3nc(C(C)C)c4cccc(F)c43)no2)C1 [Example 499, 1-[(2R)-2-{[(3R)-3-({3-[7-fluoro-3-(propan-2-yl)-1H-indazol-1-yl]-1,2,4-oxadiazol-5-yl}methyl)pyrrolidin-1-yl]methyl}pyrrolidin-1-yl]ethanone] |
| 51% | 9.6 nM | < 20 nM | CC(=O)N1CCC[C@@H]1CN1CC[C@@H](Cc2nc(-n3nc(C(C)C)c4cccc(F)c43)no2)C1 [Example 511, 1-[(2R)-2-{[(3S)-3-({3-[7-fluoro-3-(propan-2-yl)-1H-indazol-1-yl]-1,2,4-oxadiazol-5-yl}methyl)pyrrolidin-1-yl]methyl}pyrrolidin-1-yl]ethanone] |
